The IC50 is the concentration needed to halve the response being measured.

Where a name gives a salt, the structure may show the parent alone.

The values below come from patent US9499493B2, “2,4-pyrimidinediamine compounds and their uses” (Rigel Pharmaceuticals, Inc., priority 2002, dated 2016).

In test [1] the test system is cultured human mast cells (CHMC). The test is described as follows: CHMC low cell density IgE activation: tryptase assay. Conditions: anti-IgE. Format: cell-based. A digest of the protocol:
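Low-density CHMC assay: donor-adjusted 1000-1500 cells/well, MT buffer, 1 hr 37° C preincubation; anti-IgE stimulus 30 min 37° C versus MT-only controls; supernatant tryptase by substrate, 30 min RT.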

The test system is the same in test [2]. The test is described as follows: CHMC low cell density ionomycin activation: tryptase assay. Format: cell-based.

Take `Oc1cccc(Nc2ncc(F)c(Nc3ccc(OCCN4CCOCC4)cc3)n2)c1` [R926710, 5-Fluoro-N2-(3-hydroxyphenyl)-N4-[4-[2-(N-morpholino)ethyleneoxy]phenyl]-2,4-pyrimidinediamine]: the IC50 in test [1] was 1760 nM; in test [2] it was more than 10000 nM.
Regarding `Fc1cnc(Nc2ccc3c(c2)OCCO3)nc1Nc1ccc(OCCN2CCOCC2)cc1` [R926711, N2-(3,4-Ethylenedioxyphenyl)-5-fluoro-N4-[4-[2-(N-morpholino)ethyleneoxy]phenyl]-2,4-pyrimidinediamine], the IC50 was 1240 nM in test [1] and more than 10000 nM in test [2].
Taken in the same sequence, the figures for `CNC(=O)COc1ccc(Nc2ncc(F)c(Nc3ccc(C(C)(C)C)cc3)n2)cc1` [R926712, N4-(4-tert-Butylphenyl)-5-fluoro-N2-[4-(N-methylamino)carbonylmethyleneoxyphenyl]-2,4-pyrimidinediamine] were 1080 nM and more than 10000 nM.
Taken in the same sequence, the figures for `CNC(=O)COc1cccc(Nc2ncc(F)c(Nc3ccc(C(C)(C)C)cc3)n2)c1` [R926714, N4-(4-tert-Butylphenyl)-5-fluoro-N2-[3-(N-methylamino)carbonylmethyleneoxyphenyl]-2,4-pyrimidinediamine] were 428 nM and more than 10000 nM.
The corresponding values for `CN(C)C(=O)c1cc2cc(Nc3ncc(F)c(Nc4cccc(O)c4)n3)ccc2o1` [R926718, 5-Fluoro-N4-(3-hydroxyphenyl)-N2-[2-(N-dimethylamino)carbonylbenzofuran-5-yl]-2,4-pyrimidinediamine] are 1830 nM and more than 10000 nM.
For `CC(C)(C)c1ccc(Nc2nc(Nc3cccc(OCC(=O)O)c3)ncc2F)cc1` [R926726, N4-(4-tert-Butylphenyl)-N2-(3-carboxymethyleneoxyphenyl)-5-fluor-2,4-pyrimidinediamine], the IC50 in test [1] and in test [2] was more than 10000 nM throughout.
As for `CCOC(=O)CSc1ccc(Nc2ncc(F)c(Nc3ccc4c(c3)OCCO4)n2)cn1` [R926727, N2-[2-(Ethoxycarbonylmethylenethio)pyridin-5-yl]-N4-(3,4-ethylenedioxyphenyl)-5-fluoro-2,4-pyrimidinediamine], the 50% inhibitory concentration (IC50) in test [1] is 387 nM; in test [2] it was more than 10000 nM.
The corresponding values for `CC(C)(C)c1ccc(Nc2nc(Nc3cccc(OCCO)c3)ncc2F)cc1` [R926728] are 482 nM and more than 10000 nM.
For `CNC(=O)COc1cccc(Nc2ncc(F)c(Nc3ccc(OC(C)C)cc3)n2)c1` [R926730, 5-Fluoro-N4-(4-isopropoxyphenyl)-N2-[3-(N-methylamino)carbonylmethyleneoxyphenyl]-2,4-pyrimidinediamine], the IC50 in test [1] is 251 nM; in test [2], more than 10000 nM.
Regarding `CC(C)Oc1ccc(Nc2nc(Nc3cccc(OCC(=O)O)c3)ncc2F)cc1` [R926731, 5-Fluoro-N2-[3-(carboxymethyleneoxy)phenyl]-N4-[4-(isopropoxy)phenyl]-2,4-pyrimidinediamine], the IC50 in test [1] and in test [2] was more than 10000 nM throughout.
Turning to `CNC(=O)COc1cccc(Nc2ncc(F)c(Nc3ccc4c(c3)OC(F)(F)C(F)(F)O4)n2)c1` [R926732, 5-Fluoro-N4-[3,4-(1,1,2,2-tetrafluoroethylendioxy)phenyl]-N2-[3-(N-methylamino)carbonylmethyleneoxyphenyl]-2,4-pyrimidinediamine], the IC50 in test [1] is 444 nM; in test [2] it was more than 10000 nM.
On to `CNC(=O)COc1cccc(Nc2ncc(F)c(Nc3ccc(OC)c(OC)c3)n2)c1` [R926733, N4-(3,4-Dimethoxyphenyl)-5-fluoro-N2-[3-(N-methylamino)carbonylmethyleneoxyphenyl]-2,4-pyrimidinediamine], for which the IC50 in test [1] is 1500 nM; in test [2] it was more than 10000 nM.
The corresponding values for `COc1ccc(Nc2nc(Nc3cccc(OCC(=O)NCC(O)CO)c3)ncc2F)cc1OC` (stereo not drawn) [R926734, N2-[3-(N-2,3-Dihydroxypropylamino)carbonylmethyleneoxyphenyl]-N4-(3,4-dimethoxyphenyl)-5-fluoro-2,4-pyrimidinediamine] are 4490 nM and more than 10000 nM.
Taken in the same sequence, the figures for `OCCOc1cccc(Nc2ncc(CO)c(Nc3cccc(O)c3)n2)c1` [R926735, 5-(Hydroxymethyl)-N2-[3-(2-hydroxyethyleneoxy)phenyl]-N4-(3-hydroxyphenyl)-2,4-pyrimidinediamine] were 3710 nM and more than 10000 nM.
The corresponding values for `CNC(=O)COc1cccc(Nc2ncc(F)c(Nc3cccc(OC)c3)n2)c1` [R926738, 5-Fluoro-N4-(3-methoxyphenyl)-N2-[3-(N-methylamino)carbonylmethyleneoxyphenyl]-2,4-pyrimidinediamine] are 342 nM and more than 10000 nM.
In the case of `COc1cccc(Nc2nc(Nc3cccc(OCC(=O)NCC(O)CO)c3)ncc2F)c1` (stereo not drawn) [R926739, N2-[3-(N-2,3-Dihydroxypropylamino)carbonylmethyleneoxyphenyl]-5-fluoro-N4-(3-methoxyphenyl)-2,4-pyrimidinediamine], the IC50 was 508 nM in test [1] and more than 10000 nM in test [2].
Taken in the same sequence, the figures for `CCOC(=O)COc1ccc(Nc2ncc(F)c(Nc3ccc4c(c3)OCCO4)n2)cn1` [R926740, N2-[2-(Ethoxycarbonylmethyleneoxy)pyridin-5-yl]-N4-(3,4-ethylenedioxyphenyl)-5-fluoro-2,4-pyrimidinediamine] were 4420 nM and more than 10000 nM.
Taken in the same sequence, the figures for `O=C(COc1cccc(Nc2ncc(F)c(Nc3cccc(O)c3)n2)c1)NCC(O)CO` (stereo not drawn) [R926746, 5-Fluoro-N4-(3-hydroxyphenyl)-N2-[3-(N-2,3-dihydroxypropylamino)carbonylmethyleneoxyphenyl]-2,4-pyrimidinediamine] were 989 nM and more than 10000 nM.
Taken in the same sequence, the figures for `NC(=O)COc1cccc(Nc2ncc(F)c(Nc3ccc4c(c3)OCCO4)n2)c1` [R926747, N2-(3-Aminocarbonylmethyleneoxyphenyl)-N4-(3,4-ethylenedioxyphenyl)-5-fluoro-2,4-pyrimidinediamine] were 213 nM and more than 10000 nM.
Regarding `CNC(=O)COc1cc(Nc2ncc(F)c(Nc3ccc4cc[nH]c4c3)n2)ccc1OC` [R926752, 5-Fluoro-N4-[(1H)-indol-6-yl]-N2-[4-methoxy-3-[(N-methylamino)carbonylmethyleneoxy]phenyl]-2,4-pyrimidinediamine], the IC50 in test [1] was 338 nM; in test [2], more than 10000 nM.
On to `CNC(=O)COc1cccc(Nc2ncc(F)c(Nc3cccc(B(O)O)c3)n2)c1` [R926754, 5-Fluoro-N4-(3-dihydroxyborylphenyl)-N2-[3-[(N-methylamino)carbonylmethyleneoxy]phenyl]-2,4-pyrimidinediamine], for which the IC50 was 388 nM in test [1] and more than 10000 nM in test [2].
Taken in the same sequence, the figures for `CNC(=O)COc1cc(Nc2ncc(F)c(Nc3ccc(C)c(O)c3)n2)ccc1C` [R926759, 5-Fluoro-N4-(3-hydroxy-4-methylphenyl)-N2-[4-methyl-3-[(N-methylamino)carbonylmethyleneoxy]phenyl]-2,4-pyrimidinediamine] were 688 nM and more than 10000 nM.
The corresponding values for `CNC(=O)COc1cc(Nc2ncc(F)c(Nc3ccc(C)c(OCC(=O)NC)c3)n2)ccc1C` [R926760, 5-Fluoro-N2,N4-bis[4-methyl-3-[(N-methylamino)carbonylmethyleneoxy]phenyl]-2,4-pyrimidinediamine] are 2890 nM and more than 10000 nM.
In the case of `CC(C)(CO)NC(=O)COc1cccc(Nc2ncc(F)c(Nc3ccc4c(c3)OCCO4)n2)c1` [R926764, N4-(3,4-Ethylenedioxyphenyl)-5-fluoro-N2-[3-(N-2-hydroxy-1,1-dimethylethylamino)carboxymethyleneoxyphenyl]-2,4-pyrimidinediamine], the IC50 in test [1] turned out to be 252 nM; in test [2], 5640 nM.
The corresponding values for `O=C(COc1cccc(Nc2ncc(F)c(Nc3ccc4c(c3)OCCO4)n2)c1)NC1CCCCC1` [R926765, N2-[3-(N-Cyclohexylamino)carbonylmethyleneoxyphenyl]-N4-(3,4-ethylenedioxyphenyl)-5-fluoro-2,4-pyrimidinediamine] are 324 nM and 4390 nM.
The corresponding values for `CN(CCO)C(=O)COc1cccc(Nc2ncc(F)c(Nc3ccc4c(c3)OCCO4)n2)c1` [R926766, N4-(3,4-Ethylenedioxyphenyl)-5-fluoro-N2-[3-[N-methyl-N-(2-hydroxyethyl)amino]carbonylmethyleneoxyphenyl]-2,4-pyrimidinediamine] are 756 nM and more than 10000 nM.
Turning to `Oc1cccc(Nc2nc(Nc3ccc4oc(CN5CCNCC5)cc4c3)ncc2F)c1` [R926769, 5-Fluoro-N4-(3-hydroxyphenyl)-N2-[2-(N-piperazinomethylene)benzofuran-5-yl]-2,4-pyrimidinediamine Dihydrochloride Salt], the IC50 in test [1] (Dihydrochloride Salt) is 1070 nM; in test [2] it was more than 10000 nM.
For `CCOC(=O)COc1cccc(Nc2nc(Nc3ccc4c(c3)OCCO4)ncc2F)c1` [R926774, N4-(3-Ethoxycarbonylmethyleneoxyphenyl)-N2-(3,4-ethylenedioxyphenyl)-5-fluoro-2,4-pyrimidinediamine], the results for the half-maximal inhibitory concentration (IC50) in test [1] and in test [2] were 1930 nM and 7940 nM, respectively.
The corresponding values for `CCOC(=O)COc1cccc(Nc2nc(Nc3cccc(O)c3)ncc2F)c1` [R926775, N4-(3-Ethoxycarbonylmethyleneoxyphenyl)-5-fluoro-N2-(3-hydroxyphenyl)-2,4-pyrimidinediamine] are 3470 nM and more than 10000 nM.
The corresponding values for `CNC(=O)COc1cccc(Nc2nc(Nc3ccc4c(c3)OCCO4)ncc2F)c1` [R926776, N2-(3,4-Ethylenedioxyphenyl)-5-fluoro-N4-[3-(N-methylamino)carbonylmethyeleneoxyphenyl]-2,4-pyrimidinediamine] are 810 nM and more than 10000 nM.
